From patent publication US20070270475A1, “4-Methoxy-Pyrrolidine-2-Carboxylic Acid Compounds and Derivatives Thereof as Hepatitis C Virus Inhibitors” (priority 2004, published 2007)

Biological target: T1, HCV RNA Polymerase, recombinant full-length NS5B, genotype 1b (Hepatitis C virus genotype 1b, UniProt Q9WMX2)
T1 construct: Recombinant full-length NS5B; made in house; host or cells: baculovirus (insect cells)
Experiment: In vitro HCV RNA-dependent RNA polymerase inhibition assay, genotype 1b full-length enzyme
Format: biochemical, HCV genotype 1b
Settings: genotype 1b full-length NS5B, 4 nM enzyme
Procedure: In Vitro Detection of inhibitors of HCV RNA-Dependent RNA Polymerase Activity
Incorporation of [^33P]-GMP into RNA was followed by absorption of the biotin labelled RNA polymer by streptavidin containing SPA beads. A synthetic template consisting of biotinylated 13mer-oligoG hybridised to polyrC was used as a homopolymer substrate.
b) Genotype 1b Full-Length Enzyme
Reaction Conditions were 0.5 μM [^33P]-GTP (20 Ci/mMol), 1 mM Dithiothreitol, 20 mM MgCl2, 5 mM MnCl2, 20 mM Tris-HCl, pH7.5, 1.6 μg/mL polyC/0.256 μM biotinylated oligoG13, 10% glycerol, 0.01% NP-40, 0.2 u/μL RNasin and 50 mM NaCl.
HCV RNA Polymerase (Recombinant full-length NS5B (Lohmann et al, J. Virol. 71 (11), 1997, 8416. ‘Biochemical properties of hepatitis C virus NS5B RNA-dependent RNA polymerase and identification of amino acid sequence motifs essential for enzymatic activity’) expressed in baculovirus and purified to homogeneity) was added to 4 nM final concentration.
5× concentrated assay buffer mix was prepared using 1M MnCl2 (0.25 mL), glycerol (2.5 mL), 10% NP-40 (0.025 mL) and Water (7.225 mL), Total 10 mL.
2× concentrated enzyme buffer contained 1M-Tris-HCl, pH7.5 (0.4 mL), 5M NaCl (0.2 mL), 1M-MgCl2(0.4 mL), glycerol (1 mL), 10% NP-40 (10 μL), 1M DTT (20 μL) and water (7.97 mL), Total 10 mL.
Substrate Mix was prepared using 5x Concentrated assay Buffer mix (4 μL), [^33P]-GTP (10 μCi/μL, 0.02 μL), 25 μM GTP (0.4 μL), 40 μ/μL RNasin (0.1 μL), 20 μg/mL polyrC/biotinylated-oligorG (1.6 μL), and Water (3.94 μL), Total 10 μL.
Enzyme Mix was prepared by adding 1 mg/ml full-length NS5B polymerase (1.5 μL) to 2.81 mL 2×-concentrated enzyme buffer.
The Assay was set up using compound (1μL), Substrate Mix (10 μL), and Enzyme Mix (added last to start reaction) (10 μL), Total 21 μL.
The reaction was performed in a U-bottomed, white, 96-well plate. The reaction was mixed on a plate-shaker, after addition of the Enzyme, and incubated for 1 h at 22° C. After this time, the reaction was stopped by addition of 40 μL 1.875 mg/ml streptavidin SPA beads in 0.1 M EDTA. The beads were incubated with the reaction mixture for 1 h at 22° C. after which 120 μL 0.1 M EDTA in PBS was added. The plate was sealed, mixed centrifuged and incorporated radioactivity determined by counting in a Trilux (Wallac) or Topcount (Packard) Scintillation Counter.
After subtraction of background levels without enzyme, any reduction in the amount of radioactivity incorporated in the presence of a compound, compared to that in the absence, was taken as a measure of the level of inhibition. Ten concentrations of compounds were tested in three- or fivefold dilutions. From the counts, percentage of inhibition at highest concentration tested or IC50s for the compounds were calculated using GraFit 3, GraFit 4 or GraFit 5 (Erithacus Software Ltd.) software packages or a data evaluation macro for Excel based on XLFit software (IDBS).

T1 sequence (Q9WMX2 2420-3010): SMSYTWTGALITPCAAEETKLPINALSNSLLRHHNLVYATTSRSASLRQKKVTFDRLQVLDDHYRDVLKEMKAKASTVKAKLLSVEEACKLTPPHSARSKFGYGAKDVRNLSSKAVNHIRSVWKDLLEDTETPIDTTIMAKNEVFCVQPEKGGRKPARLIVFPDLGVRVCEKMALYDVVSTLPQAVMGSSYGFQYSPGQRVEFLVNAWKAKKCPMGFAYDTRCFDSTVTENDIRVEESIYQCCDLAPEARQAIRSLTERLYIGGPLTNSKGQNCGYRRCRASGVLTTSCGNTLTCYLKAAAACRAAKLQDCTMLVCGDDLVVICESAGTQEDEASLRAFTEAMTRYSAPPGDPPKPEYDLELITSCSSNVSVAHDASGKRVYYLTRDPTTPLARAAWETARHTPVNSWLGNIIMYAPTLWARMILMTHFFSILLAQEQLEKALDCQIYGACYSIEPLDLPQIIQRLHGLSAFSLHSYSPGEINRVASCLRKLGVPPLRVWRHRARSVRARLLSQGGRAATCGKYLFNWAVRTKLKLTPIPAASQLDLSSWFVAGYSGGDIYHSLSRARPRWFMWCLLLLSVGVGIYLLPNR

Structure (SMILES) | IC50 [nM]
COC[C@H]1C[C@@](Cc2ccsn2)(C(=O)O)N(C(=O)c2ccc(C(C)(C)C)c(OC)c2)[C@H]1c1nccs1 (single isomer, unassigned; enantiomer a) [Example 5] | < 200
COC[C@H]1C[C@@](Cn2cccn2)(C(=O)O)N(C(=O)c2ccc(C(C)(C)C)c(OC)c2)[C@H]1c1nccs1 (single isomer, unassigned) [Example 7] | < 200
COC[C@H]1C[C@@](Cc2cscn2)(C(=O)O)N(C(=O)c2ccc(C(C)(C)C)c(OC)c2)[C@H]1c1nccs1 (single isomer, unassigned; enantiomer a) [Example 12] | < 200
COC[C@H]1C[C@@](Cc2cscn2)(C(=O)O)N(C(=O)c2ccc(C(C)(C)C)c(OC)c2)[C@H]1c1nccs1 (racemic) [Example 3, rel-(2R,4S,5R)-1-(3-Methoxy-4-tert-butylbenzoyl)-4-(methoxymethyl)-5-(1,3-thiazol-2-yl)-2-(1,3-thiazol-4-ylmethyl)pyrrolidine-2-carboxylic acid] | < 200
COC[C@H]1C[C@@](Cn2cccn2)(C(=O)O)N(C(=O)c2ccc(C(C)(C)C)c(OC)c2)[C@H]1c1ncc(C)s1 (single isomer, unassigned; enantiomer a) [Example 11] | < 200
COC[C@H]1C[C@@](Cc2ccsn2)(C(=O)O)N(C(=O)c2ccc(C(C)(C)C)c(OC)c2)[C@H]1c1nccs1 (racemic) [Example 4, rel-(2R,4S,5R)-1-(3-Methoxy-4-tert-butylbenzoyl)-4-(methoxymethyl)-5-(1,3-thiazol-2-yl)-2-(1,2-thiazol-3-ylmethyl)pyrrolidine-2-carboxylic acid] | < 200
COC[C@H]1C[C@@](Cn2cccn2)(C(=O)O)N(C(=O)c2ccc(C(C)(C)C)c(OC)c2)[C@H]1c1nccs1 (racemic) [Example 6, rel-(2R,4S,5R)-1-(3-Methoxy-4-tert-butylbenzoyl)-4-(methoxymethyl)-2-(1H-pyrazol-1-ylmethyl)-5-(1,3-thiazol-2-yl)pyrrolidine-2-carboxylic acid] | < 200
COC[C@H]1C[C@@](Cc2nccs2)(C(=O)O)N(C(=O)c2ccc(C(C)(C)C)c(OC)c2)[C@H]1c1ncc(C)s1 (racemic) [Example 8, rel-(2R,4S,5R)-1-(3-Methoxy-4-tert-butylbenzoyl)-4-(methoxymethyl)-5-(5-methyl-1,3-thiazol-2-yl)-2-(1,3-thiazol-2-ylmethyl)pyrrolidine-2-carboxylic acid] | < 200
COC[C@H]1C[C@@](CC(C)C)(C(=O)O)N(C(=O)c2ccc(C(C)(C)C)c(OC)c2)[C@H]1c1nccs1 (racemic) [Compound A, rel-(2S,4S,5R)-2-isobutyl-1-(3-methoxy-4-tert-butylbenzoyl)-4-methoxymethyl-5-(1,3-thiazol-2-yl)pyrrolidine-2-carboxylic acid, reference compound] | > 500
COC[C@H]1C[C@@](Cc2ccccc2)(C(=O)O)N(C(=O)c2ccc(C(C)(C)C)c(OC)c2)[C@H]1c1nccs1 (racemic) [Compound E, rel-(2R,4S,5R)-2-benzyl-1-(3-methoxy-4-tert-butylbenzoyl)-4-methoxymethyl-5-(1,3-thiazol-2-yl)-pyrrolidine-2-carboxylic acid, reference compound] | 200 to 500
COC[C@H]1C[C@@](Cc2ccsn2)(C(=O)O)N(C(=O)c2ccc(C(C)(C)C)c(OC)c2)[C@H]1c1ncc(C)s1 (racemic) [Example 9, rel-(2R,4S,5R)-1-(3-Methoxy-4-tert-butylbenzoyl)-4-(methoxymethyl)-5-(5-methyl-1,3-thiazol-2-yl)-2-(1,2-thiazol-3-ylmethyl)pyrrolidine-2-carboxylic acid] | < 200
COC[C@H]1C[C@@](CC(C)C)(C(=O)O)N(C(=O)c2ccc(C(C)(C)C)c(OC)c2)[C@H]1c1nccs1 [Compound B, (2S,4S,5R)-2-isobutyl-1-(3-methoxy-4-tert-butylbenzoyl)-4-methoxymethyl-5-(1,3-thiazol-2-yl)pyrrolidine-2-carboxylic acid, reference compound] | 200 to 500
COC[C@H]1C[C@@](CC(C)C)(C(=O)O)N(C(=O)c2ccc(C(C)(C)C)c(OC)c2)[C@H]1c1ncc(C)s1 (racemic) [Compound C, rel-(2S,4S,5R)-2-isobutyl-1-(3-methoxy-4-tert-butylbenzoyl)-4-methoxymethyl-5-(5-methyl-1,3-thiazol-2-yl)pyrrolidine-2-carboxylic acid, reference compound] | > 500
COC[C@H]1C[C@@](Cc2cscn2)(C(=O)O)N(C(=O)c2ccc(C(C)(C)C)c(OC)c2)[C@H]1c1ncc(C)s1 (single isomer, unassigned; enantiomer a) [Example 2] | < 200
COC[C@H]1C[C@@](Cn2cccn2)(C(=O)O)N(C(=O)c2ccc(C(C)(C)C)c(OC)c2)[C@H]1c1ncc(C)s1 (racemic) [Example 10, rel-(2R,4S,5R)-1-(3-Methoxy-4-tert-butylbenzoyl)-4-(methoxymethyl)-5-(5-methyl-1,3-thiazol-2-yl)-2-(1H-pyrazol-1-ylmethyl)pyrrolidine-2-carboxylic acid] | < 200
COC[C@H]1C[C@@](Cc2cscn2)(C(=O)O)N(C(=O)c2ccc(C(C)(C)C)c(OC)c2)[C@H]1c1ncc(C)s1 (racemic) [Example 1, rel-(2R,4S,5R)-1-(3-Methoxy-4-tert-butylbenzoyl)-4-(methoxymethyl)-5-(5-methyl-1,3-thiazol-2-yl)-2-(1,3-thiazol-4-ylmethyl)pyrrolidine-2-carboxylic acid] | < 200
COCC1CC(CC(C)C)(C(=O)O)N(C(=O)c2ccc(C(C)(C)C)c(OC)c2)C1c1ncc(C)s1 (single isomer, unassigned; enantiomer a) [Compound D, reference compound] | 200 to 500
